The source of these data is ChEMBL document CHEMBL1697821, “Development of a phospholipidosis database and predictive quantitative structure-activity relationship (QSAR) models” (Toxicol Mech Methods, 2008).

The series has as its system Phospholipidosis. The series is described as follows: Literature-mined public compounds from Kruhlak et al phospholipidosis modelling dataset.
Turning to `C[N+]1(C)CCN(CC(O)(c2ccccc2)C2CCCCC2)CC1` (stereo not given) [HEXOCYCLIUM], the Phospholipidosis entry is recorded as “Negative: based on the absence of positive reported data from WMDD”.
For `CCCCCCc1ccc(O)cc1O` [HEXYLRESORCINOL] the value was “Negative: based on the absence of positive reported data from WMDD”.
Take `NCCc1c[nH]cn1` [HISTAMINE]: the Phospholipidosis result is “Negative: based on the absence of positive reported data from WMDD”.
On to `C[N+]1(C)[C@@H]2CC[C@H]1C[C@@H](OC(=O)C(O)c1ccccc1)C2.[Br-]` (stereo not given in full) [HOMATROPINE METHYLBROMIDE], for which the Phospholipidosis result is listed as “Negative: based on the absence of positive reported data from WMDD”.
In the case of `CN1CCCN(C(c2ccccc2)c2ccc(Cl)cc2)CC1` (stereo not given) [HOMOCHLORCYCLIZINE] it was “Positive: strong inducer confirmed by electron microscopy”; in that of `NNc1nncc2ccccc12` [HYDRALAZINE], “Negative: based on the absence of positive reported data from WMDD”; in that of `NS(=O)(=O)c1cc2c(cc1C(F)(F)F)NCNS2(=O)=O` [HYDROFLUMETHIAZIDE], “Negative: based on the absence of positive reported data from WMDD”.
For `N=C(N)c1ccc(/C=C/c2ccc(C(=N)N)cc2O)cc1` [HYDROXYSTILBAMIDINE] the value was “Negative: based on the absence of positive reported data from WMDD”.
In the case of `OCCOCCN1CCN(C(c2ccccc2)c2ccc(Cl)cc2)CC1` (stereo not given) [HYDROXYZINE] it was “Positive: strong inducer confirmed by electron microscopy”; in that of `CC(=O)[C@]1(O)Cc2c(O)c3c(c(O)c2[C@@H](O[C@H]2C[C@H](N)[C@H](O)[C@H](C)O2)C1)C(=O)c1ccccc1C3=O` [IDARUBICIN], “Negative: based on the absence of positive reported data from WMDD”; in that of `CN(C)CCCN1c2ccccc2CCc2ccccc21` [IMIPRAMINE], “Positive: strong inducer confirmed by electron microscopy”.
As for `Nc1cc(-c2ccncc2)c[nH]c1=O` [INAMRINONE], the Phospholipidosis result is “Negative: based on the absence of positive reported data from WMDD”.
`CC1(C)C(/C=C/C=C/C=C/C=C2/N(CCCCS(=O)(=O)[O-])c3ccc4ccccc4c3C2(C)C)=[N+](CCCCS(=O)(=O)[O-])c2ccc3ccccc3c21.[Na+]` [INDOCYANINE GREEN]: the Phospholipidosis result is “Negative: based on the absence of positive reported data from WMDD”.
For `O=C(NC1CCN(CCc2c[nH]c3ccccc23)CC1)c1ccccc1` [INDORAMIN], the Phospholipidosis entry was “Positive: strong inducer confirmed by electron microscopy”.
With `O[C@H]1[C@H](O)[C@@H](O)[C@H](O)[C@@H](O)[C@H]1O` [INOSITOL], the Phospholipidosis result was “Negative: based on the absence of positive reported data from WMDD”.
In the case of `CC(=O)NCc1c(I)c(NC(C)=O)c(I)c(C(=O)O)c1I` [IODAMIDE] it was “Negative: based on the absence of positive reported data from WMDD”.
On to `O=C(CCCCC(=O)Nc1c(I)cc(I)c(C(=O)O)c1I)Nc1c(I)cc(I)c(C(=O)O)c1I` [IODIPAMIDE], for which the Phospholipidosis entry was “Negative: based on the absence of positive reported data from WMDD”.
In the case of `O=c1[nH]c(=S)[nH]cc1I` [IODOTHIOURACIL] it was “Negative: based on the absence of positive reported data from WMDD”; in that of `CNC(=O)c1c(I)c(NC(C)=O)c(I)c(C(=O)O)c1I` [IOTHALAMIC ACID], “Negative: based on the absence of positive reported data from WMDD”; in that of `CN(C)/C=N/c1c(I)cc(I)c(CCC(=O)O)c1I` [IPODATE], “Negative: based on the absence of positive reported data from WMDD”.
In the case of `CN(C)CCCn1c2c(c3ccccc31)CCCCCC2` [IPRINDOLE] it was “Positive: strong inducer confirmed by electron microscopy”; in that of `CNC(C)CCC=C(C)C` (stereo not given) [ISOMETHEPTENE], “Negative: based on the absence of positive reported data from WMDD”.
For `NNC(=O)c1ccncc1` [ISONIAZID], the Phospholipidosis entry is “Negative: based on the absence of positive reported data from WMDD”.
For `CC(C)[N+](C)(CCC(C(N)=O)(c1ccccc1)c1ccccc1)C(C)C` [ISOPROPAMIDE] the value was “Negative: based on the absence of positive reported data from WMDD”; for `O=[N+]([O-])O[C@@H]1CO[C@H]2[C@@H]1OC[C@@H]2O` [ISOSORBIDE MONONITRATE], “Negative: based on the absence of positive reported data from WMDD”.
Regarding `CC(COc1ccccc1)NC(C)C(O)c1ccc(O)cc1` (stereo not given) [ISOXSUPRINE], the Phospholipidosis entry was “Negative: based on the absence of positive reported data from WMDD”.
In the case of `NC[C@H]1O[C@H](O[C@H]2[C@H](O)[C@@H](O[C@H]3O[C@H](CO)[C@@H](O)[C@H](N)[C@H]3O)[C@H](N)C[C@@H]2N)[C@H](O)[C@@H](O)[C@@H]1O` [KANAMYCIN A] it was “Negative: based on the absence of positive reported data from WMDD”.
For `CC(=O)N1CCN(c2ccc(OCC3COC(Cn4ccnc4)(c4ccc(Cl)cc4Cl)O3)cc2)CC1` (stereo not given) [KETOCONAZOLE] the value was “Positive: weak inducer based on presence of foamy macrophages and cytoplasmic vacuolations”.
For `CN1CCC(=C2c3ccccc3CC(=O)c3sccc32)CC1` [KETOTIFEN] the value was “Negative: based on the absence of positive reported data from WMDD”; for `CC(CCc1ccccc1)NCC(O)c1ccc(O)c(C(N)=O)c1` (stereo not given) [LABETALOL], “Positive: weak inducer based on presence of foamy macrophages and cytoplasmic vacuolations”; for `CC(O)C(=O)O` (stereo not given) [LACTIC ACID], “Negative: based on the absence of positive reported data from WMDD”.
On to `Nc1ccn([C@@H]2CS[C@H](CO)O2)c(=O)n1` [LAMIVUDINE], for which the Phospholipidosis result is reported as “Negative: based on the absence of positive reported data from WMDD”.
As for `Cc1oncc1C(=O)Nc1ccc(C(F)(F)F)cc1` [LEFLUNOMIDE], the Phospholipidosis entry was “Negative: based on the absence of positive reported data from WMDD”.
For `CC(C)C[C@H](N)C(=O)O` [LEUCINE] the value was “Negative: based on the absence of positive reported data from WMDD”; for `c1ccc([C@H]2CN3CCSC3=N2)cc1` [LEVAMISOLE], “Negative: based on the absence of positive reported data from WMDD”.
Take `C[N+](C)(C)C[C@H](O)CC(=O)[O-]` [LEVOCARNITINE]: the Phospholipidosis result is recorded as “Negative: based on the absence of positive reported data from WMDD”.
`C[C@H]1COc2c(N3CCN(C)CC3)c(F)cc3c(=O)c(C(=O)O)cn1c23.C[C@H]1COc2c(N3CCN(C)CC3)c(F)cc3c(=O)c(C(=O)O)cn1c23.O` [LEVOFLOXACIN]: the Phospholipidosis entry is recorded as “Negative: confirmed by electron microscopy”.
In the case of `CC[C@H](OC(C)=O)C(C[C@H](C)N(C)C)(c1ccccc1)c1ccccc1` [LEVOMETHADYL ACETATE] it was “Negative: based on the absence of positive reported data from WMDD”.
For `CCN(CC)CC(=O)Nc1c(C)cccc1C` [LIDOCAINE] the value was “Positive: weak inducer based on presence of foamy macrophages and cytoplasmic vacuolations”; for `NC[C@@H]1O[C@H](O[C@H]2[C@@H](O)[C@H](O[C@@H]3[C@@H](O)[C@H](N)C[C@H](N)[C@H]3O[C@H]3O[C@H](CO)[C@@H](O)C[C@H]3N)O[C@@H]2CO)[C@H](N)[C@@H](O)[C@@H]1O[C@H]1O[C@H](CO)[C@@H](O)[C@H](O)[C@@H]1O` [LIVIDOMYCIN], “Negative: based on the absence of positive reported data from WMDD”.
In the case of `CN1[C@@H](CC(=O)c2ccccc2)CCC[C@H]1C[C@H](O)c1ccccc1` [LOBELINE] it was “Negative: based on the absence of positive reported data from WMDD”; in that of `CCOC(=O)N1CCC(=C2c3ccc(Cl)cc3CCc3cccnc32)CC1` [LORATADINE], “Positive: weak inducer based on presence of foamy macrophages and cytoplasmic vacuolations”; in that of `O=C1Nc2ccc(Cl)cc2C(c2ccccc2Cl)=NC1O` (stereo not given) [LORAZEPAM], “Negative: based on the absence of positive reported data from WMDD”.
Consider `CN1CCN(C2=Nc3ccccc3Oc3ccc(Cl)cc32)CC1` [LOXAPINE], for which the Phospholipidosis entry is on record as “Negative: based on the absence of positive reported data from WMDD”.
For `CCN(CC)CCNc1ccc(C)c2sc3ccccc3c(=O)c12` [LUCANTHONE] the value was “Negative: based on the absence of positive reported data from WMDD”; for `CCN(CC)C(=O)[C@@H]1C=C2c3cccc4[nH]cc(c34)C[C@H]2N(C)C1` [LYSERGIDE], “Positive: weak inducer based on presence of foamy macrophages and cytoplasmic vacuolations”; for `NCCCC[C@H](N)C(=O)O` [LYSINE], “Negative: based on the absence of positive reported data from WMDD”.
For `OC[C@H]1O[C@H](O[C@H]2[C@H](O)[C@@H](O)[C@H](O)O[C@@H]2CO)[C@H](O)[C@@H](O)[C@@H]1O` [MALTOSE] the value was “Negative: based on the absence of positive reported data from WMDD”; for `CNCCCC12CCC(c3ccccc31)c1ccccc12` [MAPROTILINE], “Positive: strong inducer confirmed by electron microscopy”.
On to `CC12CC3CC(C)(C1)CC(N)(C3)C2` [MEMANTINE], for which the Phospholipidosis result is “Positive: weak inducer based on presence of foamy macrophages and cytoplasmic vacuolations”.
With `CC1=CC(=O)c2ccccc2C1=O` [MENADIONE], the Phospholipidosis entry is listed as “Negative: confirmed by electron microscopy”.
For `C[N+]1(C)CCCC(OC(=O)C(O)(c2ccccc2)c2ccccc2)C1.[Br-]` (stereo not given) [MEPENZOLATE BROMIDE] the value was “Negative: based on the absence of positive reported data from WMDD”.
As for `C[C@H]1C[C@H]2[C@@H]3CCC4=CC(=O)C=C[C@]4(C)[C@H]3C(=O)C[C@]2(C)[C@@]1(O)C(=O)CO` [MEPREDNISONE], the Phospholipidosis entry is “Negative: based on the absence of positive reported data from WMDD”.
Take `Sc1ncnc2nc[nH]c12` [MERCAPTOPURINE ANHYDROUS]: the Phospholipidosis result was “Negative: based on the absence of positive reported data from WMDD”.
For `CN1CCCCC1CCN1c2ccccc2Sc2ccc([S+](C)[O-])cc21` (stereo not given) [MESORIDAZINE] the value was “Positive: weak inducer based on presence of foamy macrophages and cytoplasmic vacuolations”.
